# According to patent publication US20180185520A1, “COLLAGEN IMAGING COMPOSTIONS” (Collagen Medical, LLC, priority 2015, published 2018):
# Bridge positions count the residues as written; N and C are the ends. Square brackets hold non-standard residues; d marks the D form. Primed or numbered codes have the meaning given here. Ends that are not written are not given here. Peptide text beside a SMILES is read from it. * marks the point of attachment. X1 = O=C(O)CN1CCN(CC(=O)O)CCN([C@H](CCC(=O)*)C(=O)O)CCN(CC(=O)O)CC1; GdDOTAGA″ = gadolinium DOTAGA chelate, amide-bonded; Bip = N[C@@H](Cc1ccc(-c2ccccc2)cc1)C(=O)O
# B1: Compound ID No. 2 (peptide)
# peptide: {GdDOTAGA″}-K(GdDOTAGA″)WHCTTK(GdDOTAGA″)FPHHYCLY[Bip]-NH2
# modifications: disulfide 4-13
# B2: Compound ID No. 4 (peptide)
# peptide: KWHCYTKFPHHYCVY[Bip]-NH2
# modifications: disulfide 4-13; also: GdDOTAGA on N-terminal nitrogen or Lys epsilon amines, sites not fixed
# Assays:
# [1] = molecular target: T1, human type I collagen (Homo sapiens, UniProt P02452+P08123); experiment: Collagen binding assay, dried human collagen in microtiter plate; conditions: 37° C., pH 7.4
# T1 construct: purchased Advanced Biomatrix 5007-A
# Description: 10 ml of a solution of 3 mg/ml of human type I collagen (VitroCol solution, Advanced Biomatrix, cat#5007-A) is dialyzed against 10 mM Phosphate (NaH2PO4), pH 4.2 at 4° C. with three changes of the dialysis buffer. The protein concentration is determined by liquid chromatography determination of hydroxyproline (P. Hutson, J. Chromatogr. B, 791 (2003) 427-430).
# (§1) Ice-cold 1×PBS pH 10.8 is added to the collagen solution for a final collagen concentration of 10 μM, pH 7.4. Collagen solutions are gelled and dried down in the wells of a 96 well microtiter plate (Corning Polystyrene Flat Bottom, cat#3641). […] The final well content of gelled collagen is measured by determination of hydroxyproline and is around 180 μg/ml.
# (§2) a serial dilution of 0.2 μM-30 μM of the peptide chelate is prepared in PBS, pH 7.4 ([…], of solution for each concentration). […] The concentration of free, unbound compound in the sample supernatants and the concentration of compound in the reserved (total) sample are determined by ICP-MS (Agilent 7500, gadolinium concentration). The concentration of compound bound to collagen is determined as [bound]=[total]−[unbound].
# (§3) The binding of compounds to human, rat and dog collagen (5 μM) was measured over the concentration range 0.2-5 μM of Comp ID Nos.: 1-4. […]
# [2] = molecular target: T2, Canine collagen (Native canine Collagen Type I and III protein) (Canis lupus familiaris, UniProt O46392+Q9XSJ7); experiment: Collagen binding assay, dried canine collagen in microtiter plate; conditions: 37° C., pH 7.4; read-out: Collagen Binding Dog (Kd)
# T2 construct: purchased YO protein AB 739
# Description: Canine collagen (Native canine Collagen Type I and III protein, YO protein AB, cat#739) is dissolved in 0.5 M acetic acid at 3.3 mg/ml by vortexing and shaking overnight at 4° C. The solution is then dialyzed against 10 mM Phosphate (NaH2PO4), pH 4.2 at 4° C. with three changes of the dialysis buffer.
# as §1, with “cat#3641). 70 μl of 10 μM collagen is aliquoted into each well in every other lane in the plate (48 wells) and the plate is incubated at 37° C. for 18 hours to form a gel and evaporate to dryness.” for “cat#3641).”
# as §2, §3
# [3] = molecular target: rat collagen (acid soluble, type I, rat tail, Millipore Inc, cat#08-115) (rat) (UniProt P02454); experiment: dried collagen film in microtiter plate; unbound compound by ICP-MS (Gd); fit to 1 binding site
# T1 sequence (P02452 162-1218 limits assumed): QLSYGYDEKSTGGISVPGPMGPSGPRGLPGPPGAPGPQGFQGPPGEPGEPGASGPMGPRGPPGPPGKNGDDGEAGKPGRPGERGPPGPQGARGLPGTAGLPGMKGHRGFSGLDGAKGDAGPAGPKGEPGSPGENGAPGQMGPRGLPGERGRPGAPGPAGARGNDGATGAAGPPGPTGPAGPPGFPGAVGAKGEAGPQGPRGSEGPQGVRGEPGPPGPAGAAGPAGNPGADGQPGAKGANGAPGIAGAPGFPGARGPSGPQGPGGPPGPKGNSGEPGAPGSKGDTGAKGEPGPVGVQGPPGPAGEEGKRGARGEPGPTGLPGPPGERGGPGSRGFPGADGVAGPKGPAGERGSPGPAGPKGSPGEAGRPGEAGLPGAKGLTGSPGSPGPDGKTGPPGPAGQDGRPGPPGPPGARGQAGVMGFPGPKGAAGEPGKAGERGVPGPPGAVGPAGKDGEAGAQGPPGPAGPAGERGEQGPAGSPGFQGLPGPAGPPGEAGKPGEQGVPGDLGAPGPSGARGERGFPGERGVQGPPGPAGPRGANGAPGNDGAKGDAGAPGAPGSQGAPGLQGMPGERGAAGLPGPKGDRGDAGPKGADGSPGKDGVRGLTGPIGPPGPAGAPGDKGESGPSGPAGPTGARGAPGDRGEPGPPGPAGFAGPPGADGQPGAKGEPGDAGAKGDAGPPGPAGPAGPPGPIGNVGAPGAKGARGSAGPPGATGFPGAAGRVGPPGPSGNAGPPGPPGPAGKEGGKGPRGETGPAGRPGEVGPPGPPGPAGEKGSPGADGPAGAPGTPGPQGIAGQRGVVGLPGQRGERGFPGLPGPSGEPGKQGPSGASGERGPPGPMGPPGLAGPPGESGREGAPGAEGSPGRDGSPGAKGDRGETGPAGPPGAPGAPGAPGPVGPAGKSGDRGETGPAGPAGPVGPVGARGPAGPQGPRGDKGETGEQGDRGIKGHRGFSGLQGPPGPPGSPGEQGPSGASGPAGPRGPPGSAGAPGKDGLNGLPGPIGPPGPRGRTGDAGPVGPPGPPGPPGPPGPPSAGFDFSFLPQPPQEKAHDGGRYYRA
# T1 sequence (P08123 80-1119 limits assumed): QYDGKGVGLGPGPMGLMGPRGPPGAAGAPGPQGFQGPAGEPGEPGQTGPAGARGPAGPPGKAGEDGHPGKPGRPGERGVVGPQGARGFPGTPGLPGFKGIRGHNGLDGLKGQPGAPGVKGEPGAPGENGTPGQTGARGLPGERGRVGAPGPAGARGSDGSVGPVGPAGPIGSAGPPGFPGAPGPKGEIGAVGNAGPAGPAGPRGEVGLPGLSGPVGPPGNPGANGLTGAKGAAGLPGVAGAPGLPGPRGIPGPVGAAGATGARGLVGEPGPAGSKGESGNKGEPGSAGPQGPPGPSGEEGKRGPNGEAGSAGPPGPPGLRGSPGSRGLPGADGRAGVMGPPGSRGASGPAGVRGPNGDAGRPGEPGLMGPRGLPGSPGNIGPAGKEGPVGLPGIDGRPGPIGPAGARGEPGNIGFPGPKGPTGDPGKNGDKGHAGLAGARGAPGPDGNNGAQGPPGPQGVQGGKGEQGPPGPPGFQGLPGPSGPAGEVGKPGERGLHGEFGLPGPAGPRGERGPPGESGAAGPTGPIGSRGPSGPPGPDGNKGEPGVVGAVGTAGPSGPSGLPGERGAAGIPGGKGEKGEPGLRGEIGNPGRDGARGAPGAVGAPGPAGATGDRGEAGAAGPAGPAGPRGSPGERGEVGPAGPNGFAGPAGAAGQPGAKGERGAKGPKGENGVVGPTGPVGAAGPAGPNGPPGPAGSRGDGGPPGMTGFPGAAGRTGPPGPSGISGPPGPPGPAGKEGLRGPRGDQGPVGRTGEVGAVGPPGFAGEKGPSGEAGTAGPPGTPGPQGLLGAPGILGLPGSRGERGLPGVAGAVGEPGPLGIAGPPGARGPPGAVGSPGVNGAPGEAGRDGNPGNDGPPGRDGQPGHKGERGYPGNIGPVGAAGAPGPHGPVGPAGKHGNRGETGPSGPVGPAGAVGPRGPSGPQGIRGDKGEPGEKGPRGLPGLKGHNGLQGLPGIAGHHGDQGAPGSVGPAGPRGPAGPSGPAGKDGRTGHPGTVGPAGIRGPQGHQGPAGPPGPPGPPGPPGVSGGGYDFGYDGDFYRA
# T2 sequence (Q9XSJ7 158-1214 limits assumed): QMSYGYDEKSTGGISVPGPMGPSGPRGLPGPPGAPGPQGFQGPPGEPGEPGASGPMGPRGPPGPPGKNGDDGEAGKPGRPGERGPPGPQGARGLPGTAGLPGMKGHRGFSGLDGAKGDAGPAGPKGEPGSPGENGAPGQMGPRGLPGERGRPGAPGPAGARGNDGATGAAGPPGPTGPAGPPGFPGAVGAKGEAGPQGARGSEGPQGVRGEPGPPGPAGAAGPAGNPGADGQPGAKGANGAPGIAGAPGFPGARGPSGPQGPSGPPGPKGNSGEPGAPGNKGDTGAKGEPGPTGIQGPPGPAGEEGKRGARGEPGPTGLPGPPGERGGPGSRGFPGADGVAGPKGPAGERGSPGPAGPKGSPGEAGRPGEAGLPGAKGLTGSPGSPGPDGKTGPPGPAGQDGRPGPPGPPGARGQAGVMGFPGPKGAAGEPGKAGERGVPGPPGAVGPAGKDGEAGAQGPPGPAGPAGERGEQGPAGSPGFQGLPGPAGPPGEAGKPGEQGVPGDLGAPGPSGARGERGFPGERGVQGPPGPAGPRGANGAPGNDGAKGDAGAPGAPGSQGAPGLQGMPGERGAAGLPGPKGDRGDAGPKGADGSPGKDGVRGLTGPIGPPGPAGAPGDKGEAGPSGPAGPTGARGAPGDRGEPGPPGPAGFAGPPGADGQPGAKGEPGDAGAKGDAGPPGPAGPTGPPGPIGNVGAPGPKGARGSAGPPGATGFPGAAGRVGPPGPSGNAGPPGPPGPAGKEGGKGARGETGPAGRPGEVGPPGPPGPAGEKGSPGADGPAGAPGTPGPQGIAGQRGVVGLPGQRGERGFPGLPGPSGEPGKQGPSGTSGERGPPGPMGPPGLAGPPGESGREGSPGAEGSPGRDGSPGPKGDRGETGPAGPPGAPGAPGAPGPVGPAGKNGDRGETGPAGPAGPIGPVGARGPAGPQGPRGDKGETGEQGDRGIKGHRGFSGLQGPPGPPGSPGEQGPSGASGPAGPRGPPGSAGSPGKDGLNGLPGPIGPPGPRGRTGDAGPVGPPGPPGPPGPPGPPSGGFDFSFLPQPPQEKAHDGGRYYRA
# T2 sequence (O46392 80-1119 limits assumed): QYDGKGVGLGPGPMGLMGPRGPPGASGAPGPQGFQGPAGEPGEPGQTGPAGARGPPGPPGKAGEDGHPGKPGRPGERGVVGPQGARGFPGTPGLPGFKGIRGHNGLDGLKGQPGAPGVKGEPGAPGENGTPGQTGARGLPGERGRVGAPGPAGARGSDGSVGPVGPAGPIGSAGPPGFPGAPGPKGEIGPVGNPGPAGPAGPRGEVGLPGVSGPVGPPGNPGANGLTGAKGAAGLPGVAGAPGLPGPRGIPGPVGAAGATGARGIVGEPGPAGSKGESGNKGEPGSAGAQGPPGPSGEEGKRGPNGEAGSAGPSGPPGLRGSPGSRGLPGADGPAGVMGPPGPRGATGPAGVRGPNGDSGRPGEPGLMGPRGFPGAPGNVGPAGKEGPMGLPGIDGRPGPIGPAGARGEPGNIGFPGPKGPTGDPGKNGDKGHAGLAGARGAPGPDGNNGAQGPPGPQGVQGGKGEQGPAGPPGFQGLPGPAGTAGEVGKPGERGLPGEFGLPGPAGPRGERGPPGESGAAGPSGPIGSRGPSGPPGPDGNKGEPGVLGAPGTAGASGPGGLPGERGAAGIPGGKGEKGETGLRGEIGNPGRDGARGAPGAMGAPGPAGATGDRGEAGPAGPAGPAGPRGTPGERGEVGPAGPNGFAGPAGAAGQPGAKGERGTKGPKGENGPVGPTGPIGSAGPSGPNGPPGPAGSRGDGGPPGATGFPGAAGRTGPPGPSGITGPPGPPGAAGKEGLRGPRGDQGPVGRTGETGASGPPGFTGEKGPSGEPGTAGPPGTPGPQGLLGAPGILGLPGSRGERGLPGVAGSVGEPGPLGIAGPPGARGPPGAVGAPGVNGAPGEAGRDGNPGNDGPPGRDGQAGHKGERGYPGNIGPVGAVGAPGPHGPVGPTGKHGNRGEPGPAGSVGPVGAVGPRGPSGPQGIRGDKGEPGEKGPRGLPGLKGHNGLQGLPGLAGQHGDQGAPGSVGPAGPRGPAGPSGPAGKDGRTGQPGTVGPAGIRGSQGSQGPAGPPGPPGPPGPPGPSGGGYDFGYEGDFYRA
Molecule,Kd [3] [µM],further results
CC(C)C[C@H](NC(=O)[C@@H]1CSSC[C@H](NC(=O)[C@H](Cc2c[nH]cn2)NC(=O)[C@H](Cc2c[nH]c3ccccc23)NC(=O)[C@H](Cc2ccc(O)cc2)NC(=O)[C@H](CCCCNC(=O)CC[C@H](C(=O)O)N2CCN(CC(=O)O)CCN(CC(=O)O)CCN(CC(=O)O)CC2)NC(=O)CC[C@H](C(=O)O)N2CCN(CC(=O)O)CCN(CC(=O)O)CCN(CC(=O)O)CC2)C(=O)N[C@@H]([C@@H](C)O)C(=O)N[C@@H]([C@@H](C)O)C(=O)N[C@@H](CCCCNC(=O)CC[C@H](C(=O)O)N2CCN(CC(=O)O)CCN(CC(=O)O)CCN(CC(=O)O)CC2)C(=O)N[C@@H](Cc2ccccc2)C(=O)N2CCC[C@H]2C(=O)N[C@@H](Cc2c[nH]cn2)C(=O)N[C@@H](Cc2c[nH]cn2)C(=O)N[C@@H](Cc2ccc(O)cc2)C(=O)N1)C(=O)N[C@@H](Cc1ccc(O)cc1)C(=O)N[C@@H](Cc1ccc(-c2ccccc2)cc1)C(N)=O [Compound ID No. 3] (X1-K(X1)YWHCTTK(X1)FPHHYCLY[Bip]-NH2; disulfide 5-14),–,Kd [1]: 29.8 µM
CC(C)[C@H](NC(=O)[C@@H]1CSSC[C@H](NC(=O)[C@H](Cc2c[nH]cn2)NC(=O)[C@H](Cc2c[nH]c3ccccc23)NC(=O)[C@H](CCCCNC(=O)CC[C@H](C(=O)O)N2CCN(CC(=O)O)CCN(CC(=O)O)CCN(CC(=O)O)CC2)NC(=O)CC[C@H](C(=O)O)N2CCN(CC(=O)O)CCN(CC(=O)O)CCN(CC(=O)O)CC2)C(=O)N[C@@H](Cc2ccc(O)cc2)C(=O)N[C@@H]([C@@H](C)O)C(=O)N[C@@H](CCCCNC(=O)CC[C@H](C(=O)O)N2CCN(CC(=O)O)CCN(CC(=O)O)CCN(CC(=O)O)CC2)C(=O)N[C@@H](Cc2ccccc2)C(=O)N2CCC[C@H]2C(=O)N[C@@H](Cc2c[nH]cn2)C(=O)N[C@@H](Cc2c[nH]cn2)C(=O)N[C@@H](Cc2ccc(O)cc2)C(=O)N1)C(=O)N[C@@H](Cc1ccc(O)cc1)C(=O)N[C@@H](Cc1ccc(-c2ccccc2)cc1)C(N)=O [Compound ID No. 4] (X1-K(X1)WHCYTK(X1)FPHHYCVY[Bip]-NH2; disulfide 4-13),–,Kd [2]: 2 µM
B1,20.6,–
B2,4.6,–
